Test results from article PMC7891696, “The molecular targets of ivermectin and lotilaner in the human louse Pediculus humanus humanus: New prospects for the treatment of pediculosis” (PLoS Pathogens, 2021).
Read-outs that look alike come from different tables or passages of the source.

Assays:
[1] = target: T1, Phh-RDL (Pediculus humanus humanus, UniProt A0A894T8E6); experiment: Two-electrode voltage-clamp on Xenopus laevis oocytes expressing Phh-RDL; format: cell-based; conditions: for concentration at which GABA-elicited currents were completely inhibited: 100 μM GABA
Experimental: (§1) Defolliculated Xenopus laevis oocytes were purchased from Ecocyte Bioscience and maintained in incubation solution (100 mM NaCl, 2 mM KCl, 1.8 mM CaCl2.2H2O, 1 mM MgCl2.6H2O, 5 mM HEPES, 2.5 mM C3H3NaO3, pH 7.5 supplemented with penicillin 100 U/mL and streptomycin 100 μg/mL) at 19°C. Each oocyte was microinjected with 57 ng of cRNA encoding Phh-GluCl or Phh-RDL using a Drummond nanoject II microinjector. Three to five days after cRNA injection, two-electrode voltage-clamp recordings were performed with an oocyte clamp OC-725C amplifier (Warner instrument) at a holding potential of -80mV or -60 mV to assess the expression of the GluCl or RDL channels. Currents were recorded and analyzed using the pCLAMP 10.4 package (Molecular Devices). Concentration-response relationships for agonists were carried out by challenging oocytes with 10 s applications of increasing concentrations of compounds. […] For Phh-GluCl, the dose-response relationship for ivermectin was performed by applying each concentration of ivermectin for 20–30 s. Each oocyte received only one ivermectin concentration (≤ 30 nM) followed with a high ivermectin concentration (≥ 100 nM). Data were normalized to a first 100 μM glutamate apllication. […] Concentration-response curves for agonists were fitted with the following equation: Y=100/1+10^H(logEC50−X)
Where Y is the normalized response, H is the Hill slope and X is the logarithm of concentration. The same equation was used for the concentration-response curves for antagonists by replacing logEC50 by logIC50. Results are expressed as mean +/- SEM and statistical analysis were performed using One-Way ANOVA with Tukey’s Multiple Comparisons Test. […] The corresponding concentration response curves were fitted using the following four parameter Hill equation: Y=Bottom+(Top−Bottom)/1+10^H(LogEC50−X)

[2] = tested on: human adult body lice (Pediculus humanus humanus); experiment: Toxicity bioassay on adult human body lice (filter paper contact, survival and immobilization); format: in vivo; conditions: for lice killed or immobilized (death or knockdown rate): adult lice n = 44
Experimental: (§2) The colony of human body lice (Pediculus humanus humanus) were provided by Kosta Y. Mumcuoglu from the Kuvin Center for the Study of Infectious and Tropical Diseases, Hebrew University-Hadassah Medical School, Jerusalem, Israel. This laboratory-reared colony adapted to rabbit blood were fed four times per week for 20–30 min on rabbits and maintained at 30 ± 1°C and 60–70% relative humidity without exposure to any drugs. […] Nits (50 to 190 per condition) were incubated with lotilaner or ivermectin and hatching was monitored between six and nine days. Water and solution of 1% DMSO were used as negative controls. Pictures were recorded with a Motic Digital Microscope 143 Series and the Motic Image Plus 3.0 software.

[3] = target: Phh-GluCl (Pediculus humanus humanus, UniProt A0A894TL71); experiment: Two-electrode voltage-clamp on Xenopus laevis oocytes expressing Phh-GluCl; format: cell-based
Experimental: as §1

[4] = tested on: nits of human body lice; experiment: Nit hatching test; format: in vivo, Pediculus humanus humanus; conditions: 100 μM, hatching between six and nine days after application, compared with water and 1% DMSO
Experimental: as §2

[5] = target: T1, Phh-RDL; experiment: Two-electrode voltage-clamp on Xenopus laevis oocytes expressing Phh-RDL; format: cell-based; conditions: 1 μM ivermectin, 90 s application
[6] = antagonism of 100 μM GABA current, 90 s preincubation, read-out: IC50

T1 sequence (A0A894T8E6 entry or part of it): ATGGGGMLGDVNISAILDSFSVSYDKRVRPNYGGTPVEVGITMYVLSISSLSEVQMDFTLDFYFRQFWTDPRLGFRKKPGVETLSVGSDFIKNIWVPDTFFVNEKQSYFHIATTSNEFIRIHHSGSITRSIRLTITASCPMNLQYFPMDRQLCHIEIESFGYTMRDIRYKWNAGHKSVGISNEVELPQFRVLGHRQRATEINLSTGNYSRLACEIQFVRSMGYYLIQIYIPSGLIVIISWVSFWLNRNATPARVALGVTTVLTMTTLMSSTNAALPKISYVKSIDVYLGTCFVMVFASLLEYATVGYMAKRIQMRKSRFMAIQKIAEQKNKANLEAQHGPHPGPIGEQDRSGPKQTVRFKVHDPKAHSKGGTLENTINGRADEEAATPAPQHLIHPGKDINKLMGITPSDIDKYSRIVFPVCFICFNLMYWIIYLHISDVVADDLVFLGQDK
Sequence of Phh-GluCl (A0A894TL71 entry or part of it): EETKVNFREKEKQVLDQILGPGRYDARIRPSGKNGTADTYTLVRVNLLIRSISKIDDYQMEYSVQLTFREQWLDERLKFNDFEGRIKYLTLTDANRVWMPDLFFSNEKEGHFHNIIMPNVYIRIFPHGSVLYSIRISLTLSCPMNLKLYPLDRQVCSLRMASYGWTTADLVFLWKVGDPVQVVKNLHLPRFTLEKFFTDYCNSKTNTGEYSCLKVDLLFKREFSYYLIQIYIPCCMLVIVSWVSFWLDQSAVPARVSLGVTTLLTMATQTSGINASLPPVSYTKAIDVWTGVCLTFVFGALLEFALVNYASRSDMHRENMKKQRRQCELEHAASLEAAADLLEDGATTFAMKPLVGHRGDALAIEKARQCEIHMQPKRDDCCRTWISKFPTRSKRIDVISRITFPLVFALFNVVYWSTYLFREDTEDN

`NCCCC(=O)O` [GABA, γ-aminobutyric acid] was tested, and the EC50 [1] was 16 µM, the Hill coefficient ([1]; GABA concentration-response curve) was 2.3 +/- 0.1 and the Emax ([1]; read-out: maximum current amplitude) was 97.95 ± 0.69%.
`N#Cc1nn(-c2c(Cl)cc(C(F)(F)F)cc2Cl)c(N)c1[S+]([O-])C(F)(F)F` (stereo not drawn) [fipronil] was tested, and the “lice killed or immobilized (death or knockdown rate)” value (“lice killed or immobilized” below) ([2]; 100 μM, 24 h) was 91%, the IC50 [1] was 0.138 ± 0.0351 µM and the agonist effect [1] was “no agonist effect”.
For `N[C@@H](CCC(=O)O)C(=O)O` [glutamate], the EC50 [3] was 9.3 µM and the Hill coefficient ([3]; glutamate concentration-response curve) was 1.9 +/- 0.5.
In the case of `Cc1cc(C2=NO[C@@](c3cc(Cl)c(Cl)c(Cl)c3)(C(F)(F)F)C2)sc1C(=O)NCC(=O)NCC(F)(F)F` [lotilaner], the “effect on nit hatching” value [4] is reported as “absence of efficacy”, the “concentration without effect on Phh-GluCl (30 μM) as multiple of the IC50 for Phh-RDL” value ([3]; 30 μM) is reported as 737 fold and the “agonist effect (current elicited)” value ([3]; 1 to 30 μM) is reported as “did not elicit any current”. For the same compound, the “inhibitory effect on glutamate-evoked currents” value ([3]; 1 to 30 μM, co-application with 100 μM glutamate) was “no significant inhibitory effect”, the lice killed ([2]; 1 μM, 24 h, adult lice) was 14% and the “death rate of lice” value ([2]; 100 μM, 3 h, adult lice) was “death of all lice”. For the same compound, the agonist effect [1] was “no agonist effect”, the type of inhibition ([1]; competitive assay, GABA dose-response with 1 nM and 10 nM lotilaner) was “non-competitive antagonist” and the IC50 ([1]; read-out: IC50) was 0.0407 µM.
ivermectin was tested, and the “effect on nit hatching” value [4] was “absence of efficacy”, the “lowest concentration at which slow activation of the receptor was observed” value [3] was 10 nM and the “reversibility of the agonist effect” value [3] was “not reversible”. For the same compound, the “current as % of the 1 mM glutamate-elicited current” value ([3]; 1 μM ivermectin) was 86.5 +/- 8.2%, the EC50 ([3]; agonist, normalized to a first 100 μM glutamate application, read-out: EC50) was 0.0785 ± 0.0302 µM and the “death rate of lice” value ([2]; 10 μM, 24 h, adult lice) was 100%. The “death rate of lice” value ([2]; 100 μM, 3 h, adult lice) was 30%, the “lice killed or immobilized” value ([2]; 100 μM, 24 h) was 100% and the “maximum agonist effect as % of the 1 mM response” value [5] was 7.9 +/- 1.3%. The “IC50 on RDL receptor relative to EC50 for Phh-GluCl” value [1] was 4 fold, the “effect on GABA current at low concentration (potentiation)” value ([1]; 100 nM ivermectin coapplied with 3 μM GABA) was “increased the current amplitude” and the “mode of action at higher concentration” value ([1]; 1 μM ivermectin) was “both an agonistic and antagonistic effect”. For the same compound, the “concentration at which GABA-elicited currents were completely inhibited” value [1] was 3 µM, the “reversibility of the currents elicited” value ([1]; 0.3 to 30 μM, 90 seconds) was “not reversible” and the IC50 [1, 6] was 0.343 ± 0.014 µM.
For picrotoxin, the “lice killed or immobilized” value ([2]; 100 μM, 24 h) was “not efficient to kill the lice”, the agonist effect [1] was “no agonist effect” and the “concentration at which GABA-elicited currents were completely inhibited” value [1] was 30 µM. It also gave an IC50 [1, 6] of 1.16 ± 0.23 µM.
